Laboratory results reported in patent publication US11739098B2 (BRISTOL-MYERS SQUIBB COMPANY, priority 2017, dated 2023).

What was measured:
Assay type in all cases: cell-based
human TLR7 = molecular target: T1, human TLR7 (Homo sapiens, UniProt Q9NYK1); assay: TLR7 inhibition reporter assay (HEK-Blue cells, SEAP reporter, gardiquimod stimulation); conditions: HEK-Blue cells overexpressing human TLR7, SEAP reporter, gardiquimod 7.5 μM
T1 construct: host or cells: HEK-Blue cells (HEK293-derived reporter line)
T1 sequence (Q9NYK1 27-1049): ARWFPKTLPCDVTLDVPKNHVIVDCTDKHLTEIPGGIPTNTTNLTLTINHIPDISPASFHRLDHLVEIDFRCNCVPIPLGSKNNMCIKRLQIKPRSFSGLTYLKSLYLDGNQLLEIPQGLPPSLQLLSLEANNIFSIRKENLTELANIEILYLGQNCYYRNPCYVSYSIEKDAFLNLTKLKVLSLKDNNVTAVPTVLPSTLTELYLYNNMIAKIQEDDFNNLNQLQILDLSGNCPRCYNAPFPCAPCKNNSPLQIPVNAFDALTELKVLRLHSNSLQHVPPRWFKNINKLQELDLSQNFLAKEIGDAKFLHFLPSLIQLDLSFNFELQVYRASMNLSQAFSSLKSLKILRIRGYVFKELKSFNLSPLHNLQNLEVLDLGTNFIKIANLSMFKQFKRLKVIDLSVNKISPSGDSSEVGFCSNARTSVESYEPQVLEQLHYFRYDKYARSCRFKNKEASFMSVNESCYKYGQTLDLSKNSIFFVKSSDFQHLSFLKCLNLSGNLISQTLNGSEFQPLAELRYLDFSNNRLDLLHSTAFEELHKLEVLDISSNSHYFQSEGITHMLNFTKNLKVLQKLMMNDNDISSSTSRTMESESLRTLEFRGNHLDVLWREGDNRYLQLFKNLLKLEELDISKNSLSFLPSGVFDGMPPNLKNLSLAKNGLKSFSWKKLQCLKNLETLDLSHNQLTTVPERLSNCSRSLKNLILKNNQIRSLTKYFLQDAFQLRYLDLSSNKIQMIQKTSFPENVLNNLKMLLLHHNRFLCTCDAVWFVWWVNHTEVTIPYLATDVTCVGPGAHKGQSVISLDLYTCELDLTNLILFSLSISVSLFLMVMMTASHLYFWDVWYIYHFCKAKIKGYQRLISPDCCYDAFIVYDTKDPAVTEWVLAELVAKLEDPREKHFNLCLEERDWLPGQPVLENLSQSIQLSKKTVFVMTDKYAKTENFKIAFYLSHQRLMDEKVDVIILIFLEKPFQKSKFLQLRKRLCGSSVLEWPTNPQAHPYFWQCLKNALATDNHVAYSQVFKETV
Method in brief: (§1)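 After 22 h at 37 °C, SEAP secretion was measured from human TLR7-, TLR8- or TLR9-expressing HEK-Blue reporter cells given compound (0.05 nM–50 μM) 30 min before agonist: 7.5 μM gardiquimod, 15.9 μM R848 or 5 nM ODN2006 respectively. Percent inhibition referenced to agonist-plus-DMSO and known-inhibitor wells.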

human TLR9 = molecular target: T2, human TLR9 (Homo sapiens, UniProt Q9NR96); assay: TLR9 inhibition reporter assay (HEK-Blue cells, SEAP reporter, ODN2006 stimulation); conditions: HEK-Blue cells overexpressing human TLR9, SEAP reporter, ODN2006 5 nM
T2 construct: host or cells: HEK-Blue cells (HEK293-derived reporter line)
T2 sequence (Q9NR96 26-1032): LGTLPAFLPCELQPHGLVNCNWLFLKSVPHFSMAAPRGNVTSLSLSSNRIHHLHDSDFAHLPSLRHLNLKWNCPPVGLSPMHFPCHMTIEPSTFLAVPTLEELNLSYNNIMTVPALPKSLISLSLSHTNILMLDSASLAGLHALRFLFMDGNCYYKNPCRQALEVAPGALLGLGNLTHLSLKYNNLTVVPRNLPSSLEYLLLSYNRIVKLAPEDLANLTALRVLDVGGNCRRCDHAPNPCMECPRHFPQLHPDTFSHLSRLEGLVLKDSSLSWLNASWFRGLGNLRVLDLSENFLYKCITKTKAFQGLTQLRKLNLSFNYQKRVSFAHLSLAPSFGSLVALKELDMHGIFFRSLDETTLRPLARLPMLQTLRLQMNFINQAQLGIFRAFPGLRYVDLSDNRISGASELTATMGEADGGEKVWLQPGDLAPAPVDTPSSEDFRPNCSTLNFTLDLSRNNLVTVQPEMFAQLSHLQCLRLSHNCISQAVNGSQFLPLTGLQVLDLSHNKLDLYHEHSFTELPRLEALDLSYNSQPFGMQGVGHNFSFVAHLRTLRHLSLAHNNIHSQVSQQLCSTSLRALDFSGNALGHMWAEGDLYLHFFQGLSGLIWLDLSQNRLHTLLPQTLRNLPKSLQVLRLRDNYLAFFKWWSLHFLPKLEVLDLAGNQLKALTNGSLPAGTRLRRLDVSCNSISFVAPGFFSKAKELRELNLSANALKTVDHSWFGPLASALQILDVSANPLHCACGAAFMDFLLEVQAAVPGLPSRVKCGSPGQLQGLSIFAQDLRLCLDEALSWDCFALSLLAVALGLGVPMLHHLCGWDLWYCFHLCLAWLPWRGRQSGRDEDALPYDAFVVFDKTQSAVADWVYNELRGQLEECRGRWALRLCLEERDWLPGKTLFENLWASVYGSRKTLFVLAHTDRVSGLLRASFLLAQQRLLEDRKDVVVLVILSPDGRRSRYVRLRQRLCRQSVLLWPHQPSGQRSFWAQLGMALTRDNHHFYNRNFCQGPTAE
Method in brief: as §1

human TLR8 = molecular target: T3, human TLR8 (Homo sapiens, UniProt Q9NR97); assay: TLR8 inhibition reporter assay (HEK-Blue cells, SEAP reporter, R848 stimulation); conditions: HEK-Blue cells overexpressing human TLR8, SEAP reporter, R848 15.9 μM
T3 construct: host or cells: HEK-Blue cells (HEK293-derived reporter line)
T3 sequence (Q9NR97 27-1041): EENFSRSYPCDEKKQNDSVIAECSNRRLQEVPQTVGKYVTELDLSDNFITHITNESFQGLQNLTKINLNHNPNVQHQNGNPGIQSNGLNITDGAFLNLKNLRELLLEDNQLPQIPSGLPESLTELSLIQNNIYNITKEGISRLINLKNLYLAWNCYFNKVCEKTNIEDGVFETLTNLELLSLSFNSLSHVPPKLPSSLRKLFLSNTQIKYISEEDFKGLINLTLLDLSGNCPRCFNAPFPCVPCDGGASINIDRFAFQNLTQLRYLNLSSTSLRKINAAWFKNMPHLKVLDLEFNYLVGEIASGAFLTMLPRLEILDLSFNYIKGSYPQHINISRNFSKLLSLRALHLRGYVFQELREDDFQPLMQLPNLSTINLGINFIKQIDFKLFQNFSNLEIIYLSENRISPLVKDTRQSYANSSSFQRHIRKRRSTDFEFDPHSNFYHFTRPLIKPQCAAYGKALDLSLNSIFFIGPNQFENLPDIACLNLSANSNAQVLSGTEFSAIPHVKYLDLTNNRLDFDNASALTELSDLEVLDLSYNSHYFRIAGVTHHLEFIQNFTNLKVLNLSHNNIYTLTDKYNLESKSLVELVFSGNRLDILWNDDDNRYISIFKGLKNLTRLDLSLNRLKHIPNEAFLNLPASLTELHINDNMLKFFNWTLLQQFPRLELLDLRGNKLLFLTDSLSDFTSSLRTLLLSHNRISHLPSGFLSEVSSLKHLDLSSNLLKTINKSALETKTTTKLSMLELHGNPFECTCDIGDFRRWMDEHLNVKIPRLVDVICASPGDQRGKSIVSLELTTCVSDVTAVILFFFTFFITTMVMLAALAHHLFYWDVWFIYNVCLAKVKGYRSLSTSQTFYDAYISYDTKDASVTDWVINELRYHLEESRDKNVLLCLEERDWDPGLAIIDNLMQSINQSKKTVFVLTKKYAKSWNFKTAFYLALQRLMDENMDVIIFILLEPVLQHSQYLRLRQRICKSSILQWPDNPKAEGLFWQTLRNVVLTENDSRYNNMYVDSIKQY
Method in brief: as §1

Row | SMILES | IC50 (human TLR7) | IC50 (human TLR9) | IC50 (human TLR8)
1 | CC(=O)N1CCC(c2ccc3[nH]c(-c4ccnc5[nH]ncc45)c(C(C)C)c3c2)CC1 [Example 592, 1-(4-(3-isopropyl-2-(1H-pyrazolo[3,4-b]pyridin-4-yl)-1H-indol-5-yl)piperidin-1-yl)ethan-1-one] | 0.1 to 1 µM | > 50 µM | 0.1 to 1 µM
2 | Cc1cc(-c2[nH]c3ccc(C4CCNCC4)cc3c2C(C)C)cn2cc(C(=O)NCC(C)(C)O)nc12 [Example 270, N-(2-hydroxy-2-methylpropyl)-6-(3-isopropyl-5-(piperidin-4-yl)-1H-indol-2-yl)-8-methylimidazo[1,2-a]pyridine-2-carboxamide] | 0.1 to 1 µM | 1 to 50 µM | 0.1 to 1 µM
3 | CNC(=O)CN1CCC(c2ccc3[nH]c(-c4cc(C)n5cncc5c4)c(C(C)C)c3c2)CC1 [Example 440, 2-(4-(3-isopropyl-2-(5-methylimidazo[1,5-a]pyridin-7-yl)-1H-indol-5-yl)piperidin-1-yl)-N-methylacetamide] | < 0.1 µM | 0.1 to 1 µM | < 0.1 µM
4 | Cc1c(-c2[nH]c3ccc(C4CCN(CCS(C)(=O)=O)CC4)cc3c2C(C)C)cn2nnnc2c1C [Example 786, 6-(3-isopropyl-5-(1-(2-(methylsulfonyl)ethyl)piperidin-4-yl)-1H-indol-2-yl)-7,8-dimethyltetrazolo[1,5-a]pyridine] | < 0.1 µM | 1 to 50 µM | < 0.1 µM
5 | CC(C)NCC(=O)N1CCC(c2ccc3[nH]c(-c4ccnc5[nH]ncc45)c(C(C)C)c3c2)CC1 [Example 578, 1-(4-(3-isopropyl-2-(1H-pyrazolo[3,4-b]pyridin-4-yl)-1H-indol-5-yl)piperidin-1-yl)-2-(isopropylamino)ethan-1-one] | < 0.1 µM | 1 to 50 µM | < 0.1 µM
6 | CNC(=O)CN1CCC(c2ccc3[nH]c(-c4ccn5nnc(C)c5c4)c(C(C)C)c3c2)CC1 [Example 319, 2-(4-(3-isopropyl-2-(3-methyl-[1,2,3]triazolo[1,5-a]pyridin-5-yl)-1H-indol-5-yl)piperidin-1-yl)-N-methylacetamide] | < 0.1 µM | 1 to 50 µM | < 0.1 µM
7 | CC(C)c1c(-c2ccc3cnnn3c2)[nH]c2ccc(C3CCN(Cc4ncn(C)n4)CC3)cc12 [Example 879, 6-(3-isopropyl-5-(1-((1-methyl-1H-1,2,4-triazol-3-yl)methyl)piperidin-4-yl)-1H-indol-2-yl)-[1,2,3]triazolo[1,5-a]pyridine] | 0.1 to 1 µM | 1 to 50 µM | 0.1 to 1 µM
8 | CC(C)c1c(-c2cc3c(s2)CNCC3)[nH]c2ccc(C3CCNCC3)cc12 [Example 207, 2-(3-isopropyl-5-(piperidin-4-yl)-1H-indol-2-yl)-4,5,6,7-tetrahydrothieno [2,3-c]pyridine] | 0.1 to 1 µM | < 0.1 µM | 1 to 50 µM
9 | CC(C)c1c(-c2ccnc3[nH]ncc23)[nH]c2ccc(C3CCN(C(=O)C4CCNCC4)CC3)cc12 [Example 649, (4-(3-isopropyl-2-(1H-pyrazolo[3,4-b]pyridin-4-yl)-1H-indol-5-yl)piperidin-1-yl)(piperidin-4-yl)methanone] | 0.1 to 1 µM | 1 to 50 µM | 0.1 to 1 µM
10 | Cc1cn2cc(-c3[nH]c4ccc(C5CCNCC5)cc4c3C(C)C)cc(C)c2n1 [Example 120, 6-(3-isopropyl-5-(piperidin-4-yl)-1H-indol-2-yl)-2,8-dimethylimidazo[1,2-a]pyridine] | < 0.1 µM | 0.1 to 1 µM | < 0.1 µM
11 | C[C@@H](O)CC(=O)N1CCC(c2ccc3[nH]c(-c4cc(F)c5nccn5c4)c(CC(F)F)c3c2)CC1 [Example 603, (R)-1-(4-(3-(2,2-difluoroethyl)-2-(8-fluoroimidazo[1,2-a]pyridin-6-yl)-1H-indol-5-yl)piperidin-1-yl)-3-hydroxybutan-1-one] | 0.1 to 1 µM | > 50 µM | > 3.13 µM
12 | CNC(=O)CN1CCC(c2ccc3[nH]c(-c4cc(C)c5nnnn5c4)c(C(C)C)c3c2)CC1 [Example 312, 2-(4-(3-isopropyl-2-(8-methyltetrazolo[1,5-a]pyridin-6-yl)-1H-indol-5-yl)piperidin-1-yl)-N-methylacetamide] | < 0.1 µM | 1 to 50 µM | < 0.1 µM
13 | COCCN1CCC(c2ccc3[nH]c(-c4cc(OC)n5ncnc5c4)c(C(C)C)c3c2)CC1 [Example 780, 7-(3-isopropyl-5-(1-(2-methoxyethyl)piperidin-4-yl)-1H-indol-2-yl)-5-methoxy-[1,2,4]triazolo[1,5-a]pyridine] | < 0.1 µM | 1 to 50 µM | < 0.1 µM
14 | Cc1ccnc2c1c(-c1[nH]c3ccc(C4CCNCC4)cc3c1C(C)C)cn2C [Example 35, 3-(3-isopropyl-5-(piperidin-4-yl)-1H-indol-2-yl)-1,4-dimethyl-1H-pyrrolo[2,3-b]pyridine] | < 0.1 µM | 1 to 50 µM | < 0.1 µM
